Source: patent US6623766B1, “Process for insecticidal formulation effective in controlling malarial vector, mosquitoes” (Council of Scientific and Industrial Research, priority 2002, dated 2003)

System: mosquito (Anopheles stephensi) larvae
Experiment: Standard WHO larvicidal test (WHO, 1981, slightly modified) on fourth-stage mosquito larvae, mortality after 24 hours
Type: in vivo
Protocol: (§1) Essential oil (0.1 ml) obtained from plant genus Foeniculum vulgare was first mixed with Tween-80 (0.1 ml) of 0.001% concentration and then the mixture was dissolved in water to make the solution of 0.01% concentration. This solution was tested against mosquito (Anopheles stephensi) larvae in the laboratory.
(§2) Standard WHO test (WHO, 1981) was employed with slight modification in the test procedure. A single fourth-stage larva was put into each of fifty vials containing 5 ml of the got test solution of each concentration. Single vial with one larva was used in one replication. Thus a total of 50 insects were used in fifty replications. Mortality data for mosquito larvae were recorded after 24 hours.
as §1, with “Mentha spicata var. viridis” for “Foeniculum vulgare”
as §2, with “the” for “the got”
as §1, with “Zingiber officinale” for “Foeniculum vulgare”
Tween-80 purchased from Hi-Media, Mumbai, India, an emulsifying agent (0.1-ml) of 0.001% concentration was dissolved in water to make the solution of 0.01% concentration. This solution was tested against mosquito (Anopheles stephensi) larvae in the laboratory.
as §1, with “oil (0.05 ml each)” for “oil (0.1 ml)”, “vulgare and Mentha spicata var. viridis were” for “vulgare was”
as §1, with “oil (0.05 ml each)” for “oil (0.1 ml)”, “vulgare and Zingiber officinale were” for “vulgare was”, “laboratory. […]” for “laboratory.”

Molecule	Mean % mortality after 24 hours (0.0016% concentration (standard), Anopheles stephensi larvae, Table 1 summary) [%]	mortality (0.0016% concentration, fourth-stage larvae, recorded after 24 hours, laboratory conditions) [%]	Mean % mortality after 24 hours (in vivo) [%]	mortality (in vivo) [%]
C/C=C\c1cc(OC)c(OC)cc1OC [Example 14, β-Asarone]	100	100.0	–	–
Tween-80 [Example 4]	–	–	0	0.0
